Results from US8940911B2, “Squarylated lactones inhibitors for bacterial biofilm formation” (Syracuse University, priority 2012, dated 2015).

Legend:
E. coli RP437 [1] = test: Static biofilm inhibition assay (crystal violet, 96-well plate); assay type: cell-based, Escherichia coli
Source text: A primary objective was to test the ability of SHLs to inhibit biofilm formation against E. coli RP437. […] Viable controls were required that would allow us to measure and compare the activity of SHLs against known biofilm inhibitors and naturally occurring AI-1 signal molecules. […] The activity of this class of molecule is presumably similar or even marginally higher than that of brominated furanone (BF8 48) (56%).
For the present invention, the E. coli RP437 biofilms were allowed to develop in a 96-well plate in the absence or presence of SHLs. After 24 hours, the planktonic bacteria and remaining media were removed and the crystal violet was introduced in the wells. The bacterial biofilm being formed at the air/liquid interface on the inside wall of the well is stained readily by crystal violet. After removing the excess crystal violet and repeatedly washing the wells with water, followed by ethanol solubilization of the dye, allows quantification of the amount of biofilm by spectrophotometry (OD600). […] We believe that the observed biofilm inhibition activity cannot be directly attributed to any predominant structural feature inherent in the SHLs. Rather, the small deviations in the structures of the SHLs and their effect on biofilm formation could be a result of the nature of non-covalent forces that arise during SHLs presumed binding within the receptor active site.
An overnight culture of E. coli RP437 grown in LB media (OD600 of 1.0) containing streptomycin (10 μg/mL) was subsequently sub-cultured to an OD600 of 0.04 (1:100 dilution with LB media). To each well in the solvent resistant polypropylene or polystyrene-based 96-well microtiter plates were added 200 μL of the sub-cultured bacteria respectively. To each of the wells containing the bacterial cultures varying concentrations of the synthetic molecules was added and the contents in each well were gently mixed. Control wells comprised of untreated bacterial culture (four replicates) and the LB media (four replicates). The microtiter plates were then covered and wrapped in a Saran wrap and allowed to incubate at 37° C. for 24 hours without shaking. After that time, the microbial medium in each well was discarded and the remaining biofilm that was formed during incubation was stained with 225 μL of a 0.1% crystal violet solution and allowed to incubate at room temperature for 30 minutes. After the incubation period, the crystal violet was discarded and the wells were gently washed twice with water (230-250 μL) and allowed to air dry for 15-20 minutes. For the purpose of solubilizing the remaining crystal violet that had stained the biofilm present in the interior of the 96-well plates, a 250 μL solution of 95% ethanol was used. After the addition of 95% ethanol, the contents of each well were mixed thoroughly and allowed to sit for 15-20 minutes. Finally, the biofilm formed was quantified by transferring 100 μL of the ethanol solution into a fresh polystyrene microtiter dish that was subsequently read by an absorbance plate reader (A600). After elimination of background absorbance, the percentage inhibition was calculated by dividing the amount of absorbed crystal violet in wells that contained the synthetic compound by the amount of absorbed crystal violet in wells that contained bacteria only (control). Biofilm assays for each synthetic compound were repeated two to three times and each concentration considered for inhibition studies were tested over four replicates.

E. coli RP437 [2] = test: Growth studies (OD600) of planktonic E. coli; assay type: cell-based, Escherichia coli; conditions: for toxicity / growth inhibition of E. coli (in words): OD600 over 24 h, 1-300 μM as stated in the sentence
Method: The toxicity of the SHLs and BF8 at a range of concentrations (1, 10, 25, 50, 100, 200 and 300 μM) was evaluated against E. coli RP437 to determine whether these small molecules elicit their inhibition effect through a toxic mechanism. […] The effect induced by SHLs at 200 μM, the inhibitory concentration at which maximum biofilm inhibition occurs was interesting to observe.
The toxicity profile of BF8 48 would in turn allow a comparison to the library of SHLs. Parallel growth studies using BF8 48 and vinyl-SHL 3 treated and untreated control cultures in 96-well plates were performed. Inhibitor concentrations used during growth studies ranged from […]-300 μM.
An overnight culture of E. coli RP437 grown in LB media (OD600 of 1.0) containing streptomycin (10 μg/mL) was subsequently sub-cultured to an OD600 of 0.04 (1:100 dilution with LB media). To each well in the solvent resistant polypropylene or polystyrene-based 96-well microtiter plates were added varying concentrations of the synthetic molecules respectively (1, 10, 25, 50, 100, 200 and 300 μM). Further, to each of the wells containing the known concentrations of synthetic molecules was added 200 μL of the sub-cultured bacteria and the contents in each well were gently mixed. Control wells comprised of untreated bacterial culture (four replicates) and the LB media (four replicates). The microtiter plates were then covered and allowed to incubate at 37° C. for 24 hours with shaking at 200 rpm. The OD600 values in each well was measured at 0, 2, 4, 6, 8, 12, 24 h after inoculation using Biotek ELx800 absorbance plate reader using Gen5™ data analysis software. For each synthetic compound, the growth experiments were repeated twice and each of the concentrations was tested over four replicates.

[3] = E. coli RP437, 200 μM, 24 h, crystal violet

SMILES: CC1=C(Br)/C(=C/Br)OC1=O [BF8 48, reference compound]
- inhibition of biofilm formation (E. coli RP437 [1]; [3]): 56%
- toxicity / growth inhibition of E. coli (in words) (E. coli RP437 [2]): marked attenuation of E. coli growth

SMILES: CCCCOc1c(NC2CCCC2)c(=O)c1=O [butoxy-SCPA 46]
- inhibition of biofilm formation (E. coli RP437 [1]; [3]): 42%
- toxicity / growth inhibition of E. coli (in words) (E. coli RP437 [2]): no inhibition of E. coli growth up to 300 μM

SMILES: C=Cc1c(NC2CCOC2=O)c(=O)c1=O (stereo not drawn) [vinyl-SHL 3]
- biofilm inhibition (in words) (E. coli RP437 [1]; [3]): greatest inhibition of biofilm
- biofilm inhibition values used in the ratio 26/57×100 (E. coli RP437 [1]; E. coli RP437, unit not given): 57
- E. coli growth relative to untreated sample (E. coli RP437 [2]; 200 μM, at 4 h, OD600): 77%
- toxicity / growth inhibition of E. coli (in words) (E. coli RP437 [2]): less toxicity compared to BF8 48
- toxicity / growth inhibition of E. coli (in words) (E. coli RP437 [2]; listed as Vinyl-SHL 3): after 8 h, E. coli RP437 growth reverts back normally
